Source: patent US20260055126A1, “SMALL MOLECULE COMPOUNDS WITH PHOSPHORYLATED ARYL STRUCTURES AND USE THEREOF” (HANGZHOU PHECDAMED CO., LTD., priority 2022, published 2026)

Key:
Type in all cases: binding
Details in all cases: 10 μM TEAD protein, 50 μM test compound
[1] = system: recombinant TEAD1 protein (194-411, Uniprot ID: P28347); experiment: Thermal shift assay (protein melting point curve), TEAD1; design: key to the marks not given beside the values
Description: (§1) The ability of the compounds to increase the melting point of purified recombinant TEAD1/2/3/4 proteins is tested using a thermal shift assay. The strength of the compound's binding to the protein and the selectivity of the compound's binding to the four TEAD subtypes are evaluated by calculating the melting point shift ΔTm−° C. […] Based on the Δ Tm value, the ability of the compound to bind to the TEAD protein is divided into four levels: ++++, +++, ++, +.
(§2) Test method of protein melting point curve: 10 μL of the protein melting point curve experimental system (10 μM TEAD protein, 50 μM test compound, SYPRO® orange (55692, sigma)) is prepared in a 384-well fluorescence quantitative PCR plate according to the following system, and reacted at 4° C. in the dark for 20 minutes. On-machine reaction: ABI QuantStudio Dx fluorescence quantitative PCR instrument; program: from 25° C. to 80° C., increasing the temperature at a rate of 0.05° C./s, and reading the fluorescence channel signal of the corresponding wavelength of SYPRO® orange every second.

[2] = target: recombinant TEAD2 protein (218-447, Uniprot ID: Q15562) (Homo sapiens (Human), UniProt Q15562); experiment: Thermal shift assay (protein melting point curve), TEAD2
recombinant TEAD2 protein (218-447, Uniprot ID: Q15562), sequence (Q15562 218-447): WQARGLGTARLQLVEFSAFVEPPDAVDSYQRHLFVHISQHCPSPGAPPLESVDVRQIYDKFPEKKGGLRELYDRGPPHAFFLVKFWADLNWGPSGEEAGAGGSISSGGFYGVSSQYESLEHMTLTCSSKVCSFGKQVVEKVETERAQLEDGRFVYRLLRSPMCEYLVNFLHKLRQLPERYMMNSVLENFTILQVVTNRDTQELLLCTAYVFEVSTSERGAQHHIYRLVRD
Description: as §1, §2

[3] = target: recombinant TEAD3 protein (218-435, Uniprot ID: Q99594) (Homo sapiens (Human), UniProt Q99594); experiment: Thermal shift assay (protein melting point curve), TEAD3
recombinant TEAD3 protein (218-435, Uniprot ID: Q99594), sequence (Q99594 218-435): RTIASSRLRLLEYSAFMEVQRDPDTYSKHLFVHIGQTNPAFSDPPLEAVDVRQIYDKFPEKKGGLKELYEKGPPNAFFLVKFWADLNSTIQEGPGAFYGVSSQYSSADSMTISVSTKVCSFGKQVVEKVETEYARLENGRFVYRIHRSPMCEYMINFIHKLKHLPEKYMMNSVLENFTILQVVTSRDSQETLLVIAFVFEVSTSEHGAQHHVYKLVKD
Description: as §1, §2

[4] = target: recombinant TEAD4 protein (217-434, Uniprot ID: Q15561) (Homo sapiens (Human), UniProt Q15561); experiment: Thermal shift assay (protein melting point curve), TEAD4
recombinant TEAD4 protein (217-434, Uniprot ID: Q15561), sequence (Q15561 217-434): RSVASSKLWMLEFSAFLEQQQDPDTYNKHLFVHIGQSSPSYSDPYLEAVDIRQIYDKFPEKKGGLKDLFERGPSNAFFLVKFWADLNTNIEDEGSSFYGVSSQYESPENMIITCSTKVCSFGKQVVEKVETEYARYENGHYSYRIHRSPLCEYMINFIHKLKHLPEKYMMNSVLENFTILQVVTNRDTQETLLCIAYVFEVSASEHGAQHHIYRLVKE
Description: as §1, §2

SMILES | Δ T m (TEAD1) [1] | Δ T m (TEAD2) [2] | Δ T m (TEAD3) [3] | Δ T m (TEAD4) [4]
CP(C)(=O)c1ccc(NC23CC(C(F)(F)F)(C2)C3)c(-c2nccc(OC3COC3)n2)c1 [Compound 37] | ++ | ++ | ++ | ++
CP(C)(=O)c1ccc(Nc2ccc(C(F)(F)F)cc2)c(-c2ncn(C3CCOCC3)n2)c1 [Compound 34] | ++ | + | + | ++
CP(C)(=O)c1ccc(OCc2ccc(C(F)(F)F)cc2)c(-c2nccc(OC3COC3)n2)c1 [Compound 20] | +++ | ++ | ++ | ++
CP(C)(=O)c1ccc(Nc2ccc(C(F)(F)F)cc2)c(-c2cn(C3COC3)nn2)c1 [Compound 41] | +++ | +++ | ++ | +++
CP(C)(=O)c1ccc(Nc2ccc(C(F)(F)F)cc2)c(-c2nccc(OC3COC3)c2C#N)c1 [Compound 36] | ++ | + | + | +++
CP(C)(=O)c1ccc(NCc2cc(F)cc(F)c2)c(-c2ncccn2)c1 [Compound 44] | ++ | ++ | + | ++
CP(C)(=O)c1ccc(Nc2ccc(C(F)(F)F)cc2)c(-c2nnc(COC3COC3)o2)c1 [Compound 57] | ++ | + | + | +
CP(C)(=O)c1ccc(NCc2ccc(C(F)(F)F)cc2)c(-c2ncn(C3CCOCC3)n2)c1 [Compound 55] | ++ | + | + | ++
Cc1nc(-c2cc(P(C)(C)=O)ccc2NCc2ccc(C(F)(F)F)cc2)no1 [Compound 5] | ++++ | +++ | ++ | ++++
CP(C)(=O)c1ccc(Nc2ccc(C(F)(F)F)cc2)c(-n2cc(C3CCOCC3)cn2)c1 [Compound 33] | ++ | + | + | ++
COCc1cccn(-c2cc(P(C)(C)=O)ccc2Nc2ccc(C(F)(F)F)cc2)c1=O [Compound 48] | ++ | + | + | +
Cc1nc(-c2cc(P(C)(C)=O)ccc2NCc2cccc(C(F)(F)F)c2)no1 [Compound 49] | +++ | + | ++ | ++
CP(C)(=O)c1ccc(Nc2ccc(C(F)(F)F)cc2)c(-c2cnn(C3COC3)c2)c1 [Compound 15] | +++ | ++ | ++ | +++
CP(C)(=O)c1ccc(NCc2ccc(C(F)(F)F)cc2)c(-c2cn(C3COC3)cn2)c1 [Compound 47] | +++ | + | ++ | ++
CP(C)(=O)c1ccc(Nc2ccc(C(F)(F)F)cc2)c(-c2cn(Cc3ccccn3)cn2)c1 [Compound 2] | +++ | + | ++ | ++
CP(C)(=O)c1ccc(Nc2cccc(OC(F)(F)F)c2)c(-c2nccc(OC3COC3)n2)c1 [Compound 67] | +++ | ++ | + | +++

SMILES | Δ T m (TEAD1) [1] | Δ T m (TEAD2) [2] | Δ T m (TEAD3) [3] | Δ T m (TEAD4) [4]
CP(C)(=O)c1ccc(Nc2ccc(C(F)(F)F)cc2)c(-c2cnn(C3CCOCC3)c2)c1 [Compound 51] | ++ | ++ | ++ | ++
CP(C)(=O)c1ccc(NCc2ccc(C(F)(F)F)cc2)c(-c2cnn(C3COC3)c2)c1 [Compound 50] | ++ | ++ | ++ | ++
CP(C)(=O)c1ccc(Nc2ccc(C(F)(F)F)cc2)c(-c2cnn(CC3COC3)c2)c1 [Compound 16] | +++ | ++ | ++ | +++
CP(C)(=O)c1ccc(Nc2ccc(C(F)(F)F)cc2)c(-c2ccn(C3CCOCC3)n2)c1 [Compound 25] | ++ | ++ | ++ | ++
CP(C)(=O)c1ccc(Nc2ccc(C(F)(F)F)cc2)c(-c2ncn3ccccc23)c1 [Compound 40] | ++ | ++ | ++ | ++
CP(C)(=O)c1ccc(Nc2ccc(C(F)(F)F)cc2)c(-c2nccc(OCCO)n2)c1 [Compound 19] | ++ | ++ | ++ | +
COCc1cccn(-c2cc(P(C)(C)=O)ccc2NCc2ccc(C(F)(F)F)cc2)c1=O [Compound 59] | ++ | + | + | +
CP(C)(=O)c1ccc(Nc2ccc(C(F)(F)F)cc2)c(-c2nnc(NCCO)o2)c1 [Compound 12] | ++ | + | + | +
CP(C)(=O)c1cnc(Nc2ccc(C(F)(F)F)cc2)c(-c2nccc(OC3COC3)n2)c1 [Compound 39] | ++++ | + | + | ++
CP(C)(=O)c1ccc(NCc2ccc(C(F)(F)F)cc2)c(-c2nccc(N3CCC(O)C3)n2)c1 (centres unmarked) [Compound 54] | ++ | + | + | ++
Cn1cnc(-c2cc(P(C)(C)=O)ccc2NC2CCC(C(F)(F)F)CC2)c1 (centres unmarked) [Compound 63] | ++++ | +++ | + | +++
CP(C)(=O)c1ccc(NC2CCc3cc(C(F)(F)F)ccc32)c(-c2ncccn2)c1 (centres unmarked) [Compound 42] | ++ | ++ | + | +
CP(C)(=O)c1ccc(NCc2cccc(C(F)(F)F)c2)c(-c2nccc(OC3COC3)n2)c1 [Compound 52] | ++ | ++ | + | ++
CP(C)(=O)c1ccc(Nc2ccc(C(F)(F)F)cc2)c(-c2csc(OC3COC3)n2)c1 [Compound 71] | ++ | + | + | ++
CC1OCCC1S(=O)(=O)c1csc(-c2cc(P(C)(C)=O)ccc2Nc2ccc(C(F)(F)F)cc2)n1 (centres unmarked) [Compound 23] | ++ | + | + | +
CP(C)(=O)c1ccc(Nc2cccc(C(F)(F)F)c2)c(-c2nccc(OC3COC3)n2)c1 [Compound 13] | +++ | + | + | +
